The values below come from patent US20250243196A1, “CITRON KINASE INHIBITORS” (The Cleveland Clinic Foundation, priority 2021, published 2025).

Each structure is given as a SMILES string.

Citron kinase, sequence (O14578 whole entry): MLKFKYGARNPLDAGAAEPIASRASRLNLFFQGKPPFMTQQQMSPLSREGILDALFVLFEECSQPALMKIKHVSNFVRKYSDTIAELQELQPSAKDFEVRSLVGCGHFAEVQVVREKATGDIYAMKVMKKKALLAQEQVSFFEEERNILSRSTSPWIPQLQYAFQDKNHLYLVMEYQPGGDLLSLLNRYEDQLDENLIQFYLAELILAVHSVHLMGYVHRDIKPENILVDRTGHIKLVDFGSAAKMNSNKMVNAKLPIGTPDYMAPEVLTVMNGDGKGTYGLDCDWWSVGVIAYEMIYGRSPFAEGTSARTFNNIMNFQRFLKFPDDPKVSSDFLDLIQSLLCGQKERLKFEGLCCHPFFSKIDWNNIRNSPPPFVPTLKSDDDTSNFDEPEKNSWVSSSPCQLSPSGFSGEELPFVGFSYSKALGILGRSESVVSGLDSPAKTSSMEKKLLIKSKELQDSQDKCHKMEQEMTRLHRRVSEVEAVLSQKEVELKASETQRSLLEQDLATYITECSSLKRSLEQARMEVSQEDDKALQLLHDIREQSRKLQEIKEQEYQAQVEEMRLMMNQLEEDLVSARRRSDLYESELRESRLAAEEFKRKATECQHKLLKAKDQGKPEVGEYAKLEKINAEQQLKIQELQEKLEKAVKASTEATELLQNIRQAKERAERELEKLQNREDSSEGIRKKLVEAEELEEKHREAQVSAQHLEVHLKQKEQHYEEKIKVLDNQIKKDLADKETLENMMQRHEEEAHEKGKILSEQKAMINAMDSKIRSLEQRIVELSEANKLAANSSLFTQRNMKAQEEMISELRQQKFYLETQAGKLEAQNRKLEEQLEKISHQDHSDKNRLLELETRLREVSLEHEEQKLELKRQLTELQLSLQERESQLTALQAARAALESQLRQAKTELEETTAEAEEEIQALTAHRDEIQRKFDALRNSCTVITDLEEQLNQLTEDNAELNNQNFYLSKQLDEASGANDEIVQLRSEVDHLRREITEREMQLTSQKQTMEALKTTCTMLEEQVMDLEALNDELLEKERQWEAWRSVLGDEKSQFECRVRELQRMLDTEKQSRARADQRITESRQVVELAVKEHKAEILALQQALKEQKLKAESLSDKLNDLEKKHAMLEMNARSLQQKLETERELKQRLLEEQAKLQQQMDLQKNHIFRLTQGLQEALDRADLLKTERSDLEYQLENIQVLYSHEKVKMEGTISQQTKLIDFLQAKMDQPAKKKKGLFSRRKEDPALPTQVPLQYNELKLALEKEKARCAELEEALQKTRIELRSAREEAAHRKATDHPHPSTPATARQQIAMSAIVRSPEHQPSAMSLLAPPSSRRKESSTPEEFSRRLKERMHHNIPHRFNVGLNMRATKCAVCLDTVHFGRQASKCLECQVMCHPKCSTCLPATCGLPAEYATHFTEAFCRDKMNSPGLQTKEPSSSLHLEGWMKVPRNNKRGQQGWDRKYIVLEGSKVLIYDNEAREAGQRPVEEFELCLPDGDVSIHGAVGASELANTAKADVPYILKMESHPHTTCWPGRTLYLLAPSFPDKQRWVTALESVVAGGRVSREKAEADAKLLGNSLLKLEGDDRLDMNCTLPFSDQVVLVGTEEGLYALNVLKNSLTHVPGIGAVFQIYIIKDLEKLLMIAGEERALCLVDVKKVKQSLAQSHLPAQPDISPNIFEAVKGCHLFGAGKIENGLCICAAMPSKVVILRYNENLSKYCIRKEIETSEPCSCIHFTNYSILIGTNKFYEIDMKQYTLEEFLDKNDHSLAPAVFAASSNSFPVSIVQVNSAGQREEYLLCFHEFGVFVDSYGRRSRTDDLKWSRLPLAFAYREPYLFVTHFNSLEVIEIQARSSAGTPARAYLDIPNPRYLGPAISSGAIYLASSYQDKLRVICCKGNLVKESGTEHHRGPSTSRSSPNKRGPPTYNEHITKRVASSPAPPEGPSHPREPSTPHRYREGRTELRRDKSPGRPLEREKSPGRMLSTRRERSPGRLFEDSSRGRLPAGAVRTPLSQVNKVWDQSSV

In this test the target is Citron kinase (Homo sapiens (Human), UniProt O14578). Briefly: Radiometric citron kinase assay (Eurofins Cat #16-040KP). It counts as biochemical. As to conditions: mean of at least two independent assays; read-out: Radiometric CitK IC50. From the text:
In some embodiments, the step of contacting the sample with the compound comprises administering the compound to a subject (e.g., a subject) suffering from cancer. Methods of determining kinase inhibition are well known in the art. For example, kinase activity of an enzyme and the inhibitory capacity of a test compound can be determined by measuring enzyme specific phosphorylation of a substrate. Commercial assays and kits can be employed. For example, kinase inhibition can be determined using a radiometric binding assay, such as using KinaseProfiler™ technology (Eurofins Discovery). This assay method directly detects product formation without the use of modified substrates or coupling enzymes. Test compounds are incubated with kinase, substrate, required cofactors and radioisotope labeled ATP. Following incubation, unreacted radioactive ATP is removed by washing and incorporation of the radiolabeled phosphate into the kinase substrate is assayed to detect phosphoryltransferase activity, which is directly proportional to the amount of phosphorylated substrate. Inhibition of the kinase by a kinase inhibitor prevents phosphorylation of the substrate and thereby limits the incorporation of radiolabeled phosphate. Such an assay is compatible with a microwell assay format, allowing simultaneous determination of IC50 of multiple compounds.
Compounds were screened for biochemical kinase activity (Eurofins Discovery, France) using one of two assays. […] All values in Table 1 are the mean of at least two independent assays.
In the case of `Cc1cc(NC(=O)[C@H](N)C(C)(C)C)cc(C)c1-c1ccnc2[nH]ccc12` [Compound F-138, (2R)-2-Amino-N-[3,5-dimethyl-4-(1H-pyrrolo[2,3-b]pyridin-4-yl)phenyl]-3,3-dimethyl-butanamide], the IC50 was determined as 3000 nM.
`CC(C)(C)[C@@H](N)C(=O)Nc1ccc(-c2ccnc3[nH]c(C4CC4)cc23)cc1` [Compound F-54, (2R)-2-Amino-N-[4-(2-cyclopropyl-1H-pyrrolo[2,3-b]pyridin-4-yl)phenyl]-3,3-dimethyl-butanamide]: the IC50 came out at 35.1 nM.
Under `CNCC(=O)Nc1ccc(-c2ccnc3[nH]ccc23)cc1` [Compound F-2, N-(4-(1H-pyrrolo[2,3-b]pyridin-4-yl)phenyl)-2-(methylamino)acetamide] stands 728 nM; under `CC(C)(C)C[C@@H](N)C(=O)Nc1ccc(-c2ccnc3[nH]c(C(F)(F)F)cc23)cc1` [Compound F-144, (2R)-2-amino-4,4-dimethyl-N-[4-[2-(trifluoromethyl)-1H-pyrrolo[2,3-b]pyridin-4-yl]phenyl]pentanamide], 22 nM; under `COCCC(N)C(=O)Nc1ccc(-c2ccnc3[nH]ccc23)cc1` (stereo not drawn) [Compound F-26, 2-Amino-4-methoxy-N-[4-(1H-pyrrolo[2,3-b]pyridin-4-yl)phenyl]butanamide], 2470 nM.
`CC[C@@H](C)[C@@H](N)C(=O)Nc1ccc(-c2ccnc3[nH]ccc23)cc1` [Compound F-11, (2R,3R)-2-Amino-3-methyl-N-[4-(1H-pyrrolo[2,3-b]pyridin-4-yl)phenyl]pentanamide]: the IC50 is 315 nM.
With `N[C@H](Cc1ccccc1)C(=O)Nc1ccc(-c2ccnc3[nH]ccc23)cc1Cl` [Compound F-133, (2R)-2-Amino-N-[2-chloro-4-(1H-pyrrolo[2,3-b]pyridin-4-yl)phenyl]-3-phenyl-propanamide], the IC50 is 557 nM.
For `Cc1cc2c(-c3ccc(NC(=O)[C@H](N)CC(C)(C)C)nc3C)ccnc2[nH]1` [Compound F-151, (2R)-2-Amino-4,4-dimethyl-N-[6-methyl-5-(2-methyl-1H-pyrrolo[2,3-b]pyridin-4-yl)-2-pyridyl]pentanamide], the IC50 is 91 nM.
The result for `CC(C)C[C@@H](N)C(=O)Nc1ccc(-c2ccnc3[nH]ccc23)cc1C(F)(F)F` [Compound F-76, (2R)-2-Amino-4-methyl-N-[4-(1H-pyrrolo[2,3-b]pyridin-4-yl)-2-(trifluoromethyl)phenyl]pentanamide] reads 316 nM.
On to `COc1cc(NC(=O)[C@H](N)C(C)(C)O)ccc1-c1ccnc2[nH]c(C)cc12` [Compound F-168, (2R)-2-Amino-3-hydroxy-N-[3-methoxy-4-(2-methyl-1H-pyrrolo[2,3-b]pyridin-4-yl)phenyl]-3-methyl-butanamide], for which the IC50 came out at 1530 nM.
The result for `COc1cccc(C[C@@H](N)C(=O)Nc2ccc(-c3ccnc4[nH]c(C)cc34)c(C)c2)c1` [Compound F-157, (2R)-2-Amino-3-(3-methoxyphenyl)-N-[3-methyl-4-(2-methyl-1H-pyrrolo[2,3-b]pyridin-4-yl)phenyl]propenamide] reads 519 nM; that for `Cc1cc2c(-c3ccc(NC(=O)[C@H](N)CC(C)C)nc3C)ccnc2[nH]1` [Compound F-95, (2R)-2-Amino-4-methyl-N-[6-methyl-5-(2-methyl-1H-pyrrolo[2,3-b]pyridin-4-yl)-2-pyridyl]pentanamide], 240 nM.
Take `Cc1cc2c(-c3ccc(NC(=O)[C@H](N)C(C)(C)C)cc3C)ccnc2[nH]1` [Compound F-91, (2R)-2-Amino-3,3-dimethyl-N-[3-methyl-4-(2-methyl-1H-pyrrolo[2,3-b]pyridin-4-yl)phenyl]butanamide]: the IC50 is 48.8 nM.
Under `CC(C)(O)[C@@H](N)C(=O)Nc1ccc(-c2ccnc3[nH]ccc23)cc1` [Compound F-31, (2R)-2-Amino-3-hydroxy-3-methyl-N-[4-(1H-pyrrolo[2,3-b]pyridin-4-yl)phenyl]butanamide] stands 52.4 nM; under `Cc1cc(NC(=O)[C@H](N)CC(C)(C)C)ccc1-c1ccnc2[nH]c(C(F)(F)F)cc12` [Compound F-99, (2R)-2-Amino-4,4-dimethyl-N-[3-methyl-4-[2-(trifluoromethyl)-1H-pyrrolo[2,3-b]pyridin-4-yl]phenyl]pentanamide], 103 nM.
Under `Cc1cc(NC(=O)[C@H](N)CC(C)(C)C)ccc1-c1ccnc2[nH]c(C3CC3)cc12` [Compound F-142, (2R)-2-Amino-N-[4-(2-cyclopropyl-1H-pyrrolo[2,3-b]pyridin-4-yl)-3-methyl-phenyl]-4,4-dimethyl-pentanamide] stands 18 nM; under `Cc1cc2c(-c3csc(NC(=O)[C@H](N)CC(C)C)n3)ccnc2[nH]1` [Compound F-116, (2R)-2-Amino-4-methyl-N-[4-(2-methyl-1H-pyrrolo[2,3-b]pyridin-4-yl)thiazol-2-yl]pentanamide], 368 nM; under `Cc1nc(NC(=O)[C@H](N)CC(C)(C)C)ccc1-c1ccnc2[nH]c(C(F)F)cc12` [Compound F-152, (2R)-2-Amino-N-[5-[2-(difluoromethyl)-1H-pyrrolo[2,3-b]pyridin-4-yl]-6-methyl-2-pyridyl]-4,4-dimethyl-pentanamide], 120 nM.
For `C[C@@H](N)C(=O)Nc1ccc(-c2ccnc3[nH]ccc23)cc1` [Compound F-5, (2R)-2-Amino-N-[4-(1H-pyrrolo[2,3-b]pyridin-4-yl)phenyl]propenamide], the IC50 came to 806 nM.
As for `Cc1cc2c(-c3csc(NC(=O)C(N)C4(C(F)(F)F)CC4)n3)ccnc2[nH]1` (stereo not drawn) [Compound F-115, 2-Amino-N-[4-(2-methyl-1H-pyrrolo[2,3-b]pyridin-4-yl)thiazol-2-yl]-2-[1-(trifluoromethyl)cyclopropyl]acetamide], the IC50 turned out to be 129 nM.
Under `Cc1cc2c(-c3ccc(NC(=O)[C@H](N)CC(C)(C)C)cc3C(F)F)ccnc2[nH]1` [Compound F-97, (2R)-2-Amino-N-[3-(difluoromethyl)-4-(2-methyl-1H-pyrrolo[2,3-b]pyridin-4-yl)phenyl]-4,4-dimethyl-pentanamide] stands 29.3 nM; under `COc1cc(NC(=O)[C@H](N)Cc2ccccc2)ccc1-c1ccnc2[nH]ccc12` [Compound F-128, (2R)-2-Amino-N-[3-methoxy-4-(1H-pyrrolo[2,3-b]pyridin-4-yl)phenyl]-3-phenyl-propanamide], 598 nM; under `CC[C@H](C)[C@H](N)C(=O)Nc1ccc(-c2ccnc3[nH]ccc23)cc1` [Compound F-10, (2S,3S)-2-Amino-3-methyl-N-[4-(1H-pyrrolo[2,3-b]pyridin-4-yl)phenyl]pentanamide], 91.9 nM.
The result for `NC(CC(F)(F)F)C(=O)Nc1ccc(-c2ccnc3[nH]ccc23)cc1` (stereo not drawn) [Compound F-22, 2-Amino-4,4,4-trifluoro-N-[4-(1H-pyrrolo[2,3-b]pyridin-4-yl)phenyl]butanamide] reads 554 nM; that for `COc1nc(-c2ccnc3[nH]c(C)cc23)ccc1NC(=O)[C@H](N)CC(C)(C)C` [Compound F-148, (2R)-2-Amino-N-[2-methoxy-6-(2-methyl-1H-pyrrolo[2,3-b]pyridin-4-yl)-3-pyridyl]-4,4-dimethyl-pentanamide], 18 nM.
As for `COCCN[C@H](CC(C)C)C(=O)Nc1ccc(-c2ccnc3[nH]ccc23)cc1` [Compound F-46, (2R)-2-(2-Methoxyethylamino)-4-methyl-N-[4-(1H-pyrrolo[2,3-b]pyridin-4-yl)phenyl]pentanamide], the IC50 is 1260 nM.
For `Cc1cc2c(-c3ccc(NC(=O)[C@H](N)Cc4ccccc4)cc3)ccnc2[nH]1` [Compound F-92, (2R)-2-Amino-N-[4-(2-methyl-1H-pyrrolo[2,3-b]pyridin-4-yl)phenyl]-3-phenyl-propanamide], the IC50 was 415 nM.
The result for `Cc1cc2c(-c3ccc(NC(=O)[C@H](N)C(C)(C)F)cc3C)ccnc2[nH]1` [Compound F-173, (2S)-2-Amino-3-fluoro-3-methyl-N-[3-methyl-4-(2-methyl-1H-pyrrolo[2,3-b]pyridin-4-yl)phenyl]butanamide] reads 461 nM; that for `Cc1cc(NC(=O)[C@H](N)CC(C)(C)C)ccc1-c1ccnc2[nH]ccc12` [Compound F-60, (2R)-2-Amino-4,4-dimethyl-N-[3-methyl-4-(1H-pyrrolo[2,3-b]pyridin-4-yl)phenyl]pentanamide], 7.8 nM; that for `Cc1cc2c(-c3ccc(NC(=O)[C@H](N)CC(C)(C)C)cc3OC(F)F)ccnc2[nH]1` [Compound F-169, (2R)-2-Amino-N-[3-(difluoromethoxy)-4-(2-methyl-1H-pyrrolo[2,3-b]pyridin-4-yl)phenyl]-4,4-dimethyl-pentanamide], 53 nM.
The result for `Cc1c(-c2ccnc3[nH]ccc23)ccc(NC(=O)[C@H](N)C(C)(C)C)c1F` [Compound F-137, (2R)-2-Amino-N-[2-fluoro-3-methyl-4-(1H-pyrrolo[2,3-b]pyridin-4-yl)phenyl]-3,3-dimethyl-butanamide] reads 23.1 nM; that for `COc1cc(-c2ccnc3[nH]c(C)cc23)ncc1NC(=O)[C@H](N)CC(C)(C)C` [Compound F-171, (2R)-2-Amino-N-[4-methoxy-6-(2-methyl-1H-pyrrolo[2,3-b]pyridin-4-yl)-3-pyridyl]-4,4-dimethyl-pentanamide], 232 nM; that for `CCC[C@@H](N)C(=O)Nc1ccc(-c2ccnc3[nH]ccc23)cc1` [Compound F-14, (2R)-2-Amino-N-[4-(1H-pyrrolo[2,3-b]pyridin-4-yl)phenyl]pentanamide], 69.6 nM.

As a reminder, the IC50 is the point on the concentration scale where inhibition reaches its midpoint.
